{"source": "paper PMC5471438", "about": "“Linaclotide activates guanylate cyclase‐C/cGMP/protein kinase‐II‐dependent trafficking of CFTR in the intestine” (Physiological Reports, 2017)", "key": {"CFTR [1]": {"system": "CFTR", "experiment": "Surface biotinylation of CFTR in cGKII knockdown C2BBe cells", "format": "cell-based, human", "conditions": "dibutyryl cAMP 1 mmol/L, 30 min, vs PBS"}, "[2]": {"system": "rat proximal colonic mucosa", "experiment": "Transepithelial short circuit current (Isc) across rat proximal colonic mucosa, Ussing chamber", "design": "species or system rat (Sprague–Dawley)"}, "CFTR [3]": {"system": "CFTR", "experiment": "Surface biotinylation of CFTR in T84 cells", "format": "cell-based, human", "conditions": "linaclotide 3.27 μmol/L 30 min"}, "CFTR [4]": {"system": "CFTR", "experiment": "Surface biotinylation of CFTR in C2BBe cells", "format": "cell-based, human", "conditions": "linaclotide 3.27 μmol/L 30 min"}, "[5]": {"system": "rat proximal colonic mucosa", "design": "method as in 2 sources, one per row (each row's own in cited_ref): ref Tchernychev et al. 2015 ||| ref Vaandrager et al. 1997", "conditions": "rat proximal colon; ref Vaandrager et al. 1997; cited from earlier work"}, "[6]": {"system": "PKGII-deficient mice intestinal tissue", "design": "method as in Vaandrager et al. 2000", "conditions": "normal and PKGII knockout mice; ref Vaandrager et al. 2000; cited from earlier work"}, "human colonic mucosa": {"system": "human colonic mucosa", "experiment": "Transepithelial short circuit current (Isc) across human ascending colonic mucosa, Ussing chamber", "conditions": "human ascending colon, bumetanide 100 μmol/L basolateral, linaclotide 30 nmol/L and 1000 nmol/L; mean ± SEM (n = 6)"}, "cGKII": {"system": "cGKII", "experiment": "cGKII knockdown in C2BBe cells, Western blot", "format": "cell-based, human", "conditions": "lentiviral cGKII shRNA"}, "T84 cells": {"system": "T84 cells", "conditions": "ref Forte et al. 1993; cited from earlier work"}, "human intestine": {"system": "human intestine", "design": "method as in Kuhn et al. 1994", "conditions": "segments of human intestine including ascending colon; ref Kuhn et al. 1994; cited from earlier work"}, "mouse colonic mucosa": {"system": "mouse colonic mucosa", "conditions": "apical and basolateral membrane, ref Silos‐Santiago et al. 2013, Tchernychev et al. 2015; cited from earlier work", "from_the_text": "(§1) While the increase in intracellular cGMP following ligand activation of GC‐C is well established, the efflux of cGMP from enterocytes is not well studied."}, "Caco‐2 cell line": {"system": "Caco‐2 cell line", "conditions": "human colonic Caco‐2 cell line; ref Castro et al. 2013; Silos‐Santiago et al. 2013; cited from earlier work", "from_the_text": "as §1"}, "rat colonic mucosa": {"system": "rat colonic mucosa", "conditions": "apical and basolateral membrane, ref Silos‐Santiago et al. 2013, Tchernychev et al. 2015; cited from earlier work", "from_the_text": "as §1"}, "[7]": {"conditions": "H7 50 μmol/L pretreatment 30 min"}, "[8]": {"conditions": "H8 70 μmol/L pretreatment 30 min"}}, "note": "“Also recorded” adds a separate entry of the source. Where no end group is shown, it is not given here."}
{"molecule": "CCCC(=O)Nc1ncnc2c1ncn2[C@@H]1O[C@@H]2COP(=O)(O)O[C@H]2[C@H]1OC(=O)CCC", "note": "[Dibutyryl cAMP]", "values": [{"measurement": "surface CFTR in cGKII‐KD cells after cAMP analog", "setting": "CFTR [1]", "result": "increased apical surface CFTR"}, {"measurement": "surface CFTR in cGKII‐KD cells after cAMP analog", "setting": "CFTR [1]; listed as dibuturyl cAMP", "result": "able to recruit CFTR to the membrane"}]}
{"molecule": "O=C(CNc1ccc2ccccc2c1)N/N=C/c1cc(Br)c(O)c(Br)c1O", "note": "[GlyH‐101]", "values": [{"measurement": "inhibition of linaclotide‐evoked Isc by CFTR inhibitor", "setting": "[2]; GlyH‐101 0.1 mmol/L apical, 20 min after linaclotide 6 nmol/L or 100 nmol/L, mean ± SEM (n = 4)", "result": "significantly attenuated the linaclotide‐evoked Isc"}, {"measurement": "inhibition of linaclotide‐evoked Isc by CFTR inhibitor, low linaclotide", "setting": "[2]; GlyH‐101 0.1 mmol/L, linaclotide 6 nmol/L", "result": "more profound when tissues were stimulated with lower concentrations of linaclotide; also recorded: significantly inhibited Isc induced by low concentration of linaclotide"}, {"measurement": "inhibition of linaclotide‐evoked Isc by CFTR inhibitor, high linaclotide", "setting": "[2]; GlyH‐101 0.1 mmol/L, linaclotide 100 nmol/L", "result": "less profound"}]}
{"molecule": "CC1CNCCN1S(=O)(=O)c1cccc2cnccc12", "note": "(centres unmarked) [H7]", "values": [{"measurement": "effect of PKA inhibitor on linaclotide‐induced apical CFTR traffic", "setting": "CFTR [3]; [7]", "result": "reduced but did not abrogate linaclotide‐induced apical CFTR traffic; also recorded: reduce linaclotide‐induced apical trafficking of CFTR; also recorded: partially abrogated linaclotide‐stimulated traffic"}, {"measurement": "effect of PKA inhibitor on linaclotide‐induced apical CFTR traffic", "setting": "CFTR [4]; [7]", "result": "reduced but did not abrogate linaclotide‐induced apical CFTR traffic; also recorded: reduce linaclotide‐induced apical trafficking of CFTR; also recorded: partially abrogated linaclotide‐stimulated traffic"}]}
{"molecule": "CNCCNS(=O)(=O)c1cccc2cnccc12.Cl.Cl", "note": "[H8]", "values": [{"measurement": "inhibition of GC‐C‐mediated transepithelial ion current by PKGII antagonists", "setting": "[5]", "result": "significant but incomplete inhibition"}, {"measurement": "effect of PKG inhibitor on linaclotide‐induced apical CFTR traffic", "setting": "CFTR [3]; [8]", "result": "reduced linaclotide‐induced apical CFTR traffic more potently compared to the PKA inhibitor H7; also recorded: reduce linaclotide‐induced apical trafficking of CFTR"}, {"measurement": "effect of PKG inhibitor on linaclotide‐induced apical CFTR traffic", "setting": "CFTR [4]; [8]", "result": "reduced linaclotide‐induced apical CFTR traffic more potently compared to the PKA inhibitor H7; also recorded: reduce linaclotide‐induced apical trafficking of CFTR"}, {"measurement": "effect of PKGII inhibitor on NKH477‐evoked Isc", "setting": "[2]; rat proximal colon, H8 100 μmol/L 30 min preincubation, NKH477 20 μmol/L basolateral, mean ± SEM (n = 5)", "result": "no effect on NKH477‐evoked Isc; also recorded: no effect on PKA‐mediated short circuit current induced by NKH477"}, {"measurement": "effect of PKGII inhibitor on linaclotide‐induced Isc", "setting": "[2]; rat proximal colon, H8 100 μmol/L 30 min preincubation, linaclotide 100 nmol/L apical, mean ± SEM (n = 5)", "result": "significantly decreased linaclotide‐induced Isc compared to vehicle‐treated tissues; also recorded: significant, it was not complete"}]}
{"molecule": "C=C[C@@]1(C)CC(=O)[C@]2(O)[C@@]3(C)[C@@H](O)CCC(C)(C)[C@@H]3[C@H](OC(=O)CCN(C)C)[C@H](OC(C)=O)[C@@]2(C)O1.Cl", "note": "[NKH477]", "values": [{"measurement": "NKH477-induced transepithelial ion current", "setting": "[2]; rat proximal colon, NKH477 20 μmol/L basolateral, mean ± SEM (n = 5)", "result": "robust transepithelial ion current"}]}
{"molecule": "Nc1nc2c(nc(Sc3ccc(Cl)cc3)n2[C@@H]2O[C@@H]3CO[P@@](=O)(S)O[C@H]3[C@H]2O)c(=O)[nH]1", "note": "[Rp‐8‐pCPT‐cGMPS]", "values": [{"measurement": "inhibition of GC‐C‐mediated transepithelial ion current by PKGII antagonists", "setting": "[5]", "result": "significant but incomplete inhibition"}]}
{"molecule": "Nc1cc(-c2ccncc2)c[nH]c1=O", "note": "[amrinone]", "values": [{"measurement": "transepithelial ion current by PDE3 inhibitor", "setting": "[6]", "result": "induced transepithelial ion current in tissues from normal and PKGII knockout mice"}]}
{"molecule": "CCCCNc1cc(C(=O)O)cc(S(N)(=O)=O)c1Oc1ccccc1", "note": "[bumetanide]", "values": [{"measurement": "effect of NKCC1 inhibitor on linaclotide‐evoked Isc", "setting": "human colonic mucosa", "result": "significantly attenuated linaclotide‐evoked Isc; also recorded: inhibits GC‐C mediated short circuit current across human colonic mucosa"}]}
{"molecule": "cGKII shRNA: cGKII‐targeting shRNA (5′‐GGGCCTTAATAACCATTTAGT‐3′), lentiviral pLKO.1 (expressed from pLKO.1 lentiviral vector)", "values": [{"measurement": "downregulation of cGKII", "setting": "cGKII", "result": "approximately 50 ± 3%"}]}
{"molecule": "guanylin (PGTCEICAYAACTGC; ends and bridges not checked; cysteine pairing not given here; UniProt Q02747 101-115, looked up) [natural hormone, GC‐C agonist]", "values": [{"measurement": "cGMP production via GC‐C activation", "setting": "T84 cells", "result": "increase production of cGMP"}, {"measurement": "electrogenic Cl− secretion", "setting": "human intestine", "result": "increase electrogenic Cl^− secretion"}]}
{"molecule": "uroguanylin (NDDCELCVNVACTGCL; ends and bridges not checked; cysteine pairing not given here; UniProt Q16661 97-112, looked up) [natural hormone, GC‐C agonist]", "values": [{"measurement": "cGMP production via GC‐C activation", "setting": "T84 cells", "result": "increase production of cGMP"}, {"measurement": "cGMP efflux", "setting": "mouse colonic mucosa", "result": "induce cGMP efflux"}, {"measurement": "cGMP efflux", "setting": "Caco‐2 cell line", "result": "induce cGMP efflux"}, {"measurement": "cGMP efflux", "setting": "rat colonic mucosa", "result": "induce cGMP efflux"}]}
